The text below walks through data of patent US10835549B2, “Polyplexes” (Vanderbilt University, priority 2013, dated 2020).

No end group written: not given here.

One series relates to rat aortic smooth muscle. The series is described as follows: Rat aortic smooth muscle contraction (muscle bath, phenylephrine). To be noted: 30 minutes incubation, phenylephrine challenge, n=6. The procedure: FIGS. 71-73 show the results of an example wherein rat aortic smooth muscle was suspended on a muscle bath apparatus. Tissue was equilibrated in bicarbonate buffer and challenged with KCl (110 mM) to confirm viability of the tissue. After returning the tissue to basal tension, the smooth muscle was challenged with 5*10^−8 M phenylephrine (5*10^−8 M) and then washed with bicarbonate buffer. The tissue was then returned to basal tension through subsequent washes of bicarbonate buffer and then either treated with control, AZX 100 peptide, or AZX polyplexes. After 30 minutes of incubation, the tissue was challenged with phenylephrine, and the contractile force was compared with the initial contraction to determine the percent inhibition that occurs. […] (n=6)

A further series concerns human saphenous vein. The series is described as follows: HSV enhanced relaxation with AZX 100 (muscle bath, phenylephrine / sodium nitroprusside). To be noted: 30 minutes incubation, n=3.
Series [1] relates to human bronchiolar airway smooth muscle (HASM). The series is described as follows: Relaxation of human bronchiolar airway smooth muscle (HASM). The arrangement: unit not given here.
The nature of series [2]: Flow cytometric quantification of intracellular uptake and retention. To be noted: human.
Protocol: (§1) HCAVSMCs were grown to 80-90% confluence, harvested, and seeded at 20,000 cells per well in a 24-well plate and were allowed to adhere overnight in low serum media. […] Following treatment, cells were washed with PBS −/−, washed with CellScrub buffer (Genlantis) for 10 minutes at room temperature to remove extracellular polyplexes and/or peptide, washed 2× in PBS −/−, and the media was refreshed with complete growth media. Cells were then incubated for an additional 0, 12, 24, 72, or 120 hours. Cells were then washed with PBS −/−, trypsinized, and resuspended in 0.1% Trypan blue in PBS (−/−) for analysis on a FACSCalibur flow cytometer (Becton Dickinson) with BD CellQuest™ Pro software (V 5.2). Data was exported and analyzed with FlowJo software (V 7.6.4). All samples are run in triplicate.
(§2) Studies were done using a fluorescently labeled peptide and flow cytometry. […] Exponential lines were fit to each data set in order to determine a fluorescence half-life for each treatment group. Mean Fluorescence Intensity values were reported as increase in MFI compared to untreated controls, n=3.
A further series deals with HCAVSMCs. The series is described as above. To be noted: HCAVSMCs, up to 5 days after treatment.

Protocol for HCAVSMCs: as §1, §2

As to “AZX 100 peptide: AZX100 peptide (SEQ ID NO: 2), which can be utilized for airway relaxation (YARAAARQARAWLRRASAPLPGLK; AZX-100 Sequence)”, in the series on rat aortic smooth muscle, the inhibition of contraction result was “dose dependent inhibition of contraction”. Also, the enhancement of relaxation entry with human saphenous vein is listed as “dose dependent enhancement of relaxation”. The “Relaxation of HASM” value in series [1] (HASM 11, .5 mM) turned out to be 24; in series [1] (HASM 17, 1 mM), 25; in series [1] (HASM 17, .5 mM) it was 10; in series [1] (HASM 18, 1 mM), 80; in series [1] (HASM 20, 1 mM), 76; in series [1] (HASM 20, .5 mM), 36. Besides, the “Relaxation of HASM” value in series [1] (HASM 22, 1 mM) turned out to be 84; in series [1] (HASM 22, .5 mM), 40.

YARAAARQARAKALARQLGVAA [MK2i] gave a half-life at 10 μM in series [2] of 98.4 h. In addition, in the series on HCAVSMCs, the “intracellular retention of the peptide” value was “more rapidly lost intracellular peptide”.
